Data on twelve compounds can be found in PubChem BioAssay AID330 (DTP/NCI, 2004).

This test deals with P388 leukemia ip, CD2F1 mice, survival T/C. Put plainly: NCI In Vivo Anticancer Drug Screen. Data for tumor model P388 Leukemia (intraperitoneal) in CD2F1 (CDF1) mice. The note with it: endpoint: median survival time, higher = longer survival. The method in brief:
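Mice carrying the transplanted tumor received test compound or vehicle. Survival was recorded in each group, and the value is the treated-group measurement divided by that of the vehicle-treated control group.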

The mark [1] stands for this setting: dose: 50.0 mg/kg/injection, schedule: Q01DX009 (ip), vehicle: Klucel (hydroxypropylcellulose) (HPC).
[2] abbreviates: dose: 100.0 mg/kg/injection, schedule: Q01DX009 (ip), vehicle: Klucel (hydroxypropylcellulose) (HPC).
Setting [3] is: dose: 200.0 mg/kg/injection, schedule: Q01DX009 (ip), vehicle: Klucel (hydroxypropylcellulose) (HPC).
Setting [4] is: dose: 50.0 mg/kg/injection, schedule: Q01DX005 (ip), vehicle: saline with Tween-80.
Where [5] appears, read: dose: 100.0 mg/kg/injection, schedule: Q01DX005 (ip), vehicle: saline with Tween-80.

Each structure is given as a SMILES string. Values joined by “and” are separate entries in the source; they are usually repeats but may differ in a detail not shown here. Identical values can stand only once. Inconclusive results and toxic doses are left out. Peptide text beside a SMILES is read from it. * marks the point of attachment. Cbz = O=C(OCc1ccccc1)*

In the case of `COC(=O)Nc1cnc(C=O)c(C)c1-c1ccc(OC)c(OC)c1OCc1ccccc1`, the T/C (dose: 12.5 mg/kg/injection, schedule: Q01DX009 (ip), vehicle: other) is 111 % of control; the T/C (dose: 25.0 mg/kg/injection, schedule: Q01DX009 (ip), vehicle: other) was 119 % of control; the T/C (dose: 50.0 mg/kg/injection, schedule: Q01DX009 (ip), vehicle: other) was 110 % of control; the T/C (dose: 100.0 mg/kg/injection, schedule: Q01DX009 (ip), vehicle: other) was 103 % of control; the T/C (dose: 200.0 mg/kg/injection, schedule: Q01DX009 (ip), vehicle: other) was 117 % of control; the T/C (dose: 400.0 mg/kg/injection, schedule: Q01DX009 (ip), vehicle: other) is 90 % of control.

On to `O=S(=O)(c1ccc(NC(=S)N2CCOCC2)cc1)N1CCCCC1`, for which the T/C under setting [1] is 100 % of control, the T/C under setting [2] is 96 % of control and the T/C under setting [3] is 97 % of control.

`CCOC(=O)NCC(C)(c1ccccc1)c1ccccc1`: the T/C by setting is: (dose: 50.0 mg/kg/injection, schedule: Q01DX009 (ip), vehicle: saline) 87 % of control; (dose: 100.0 mg/kg/injection, schedule: Q01DX009 (ip), vehicle: saline) 94 % of control; (dose: 200.0 mg/kg/injection, schedule: Q01DX009 (ip), vehicle: saline) 87 % of control.

Consider `C/C(=C\c1cc(Cl)ccc1OCC(=O)O)[N+](=O)[O-]`, for which the T/C is, setting by setting: (dose: 50.0 mg/kg/injection, schedule: Q01DX001 (ip), vehicle: saline with Tween-80) 108 % of control and 116 % of control; (dose: 100.0 mg/kg/injection, schedule: Q01DX001 (ip), vehicle: saline with Tween-80) 121 % of control and 96 % of control; (dose: 200.0 mg/kg/injection, schedule: Q01DX001 (ip), vehicle: saline with Tween-80) 121 % of control; (dose: 400.0 mg/kg/injection, schedule: Q01DX001 (ip), vehicle: saline with Tween-80) 115 % of control.

Turning to `CCn1c2ccccc2c2cc(N)c(N=Nc3ccc([N+](=O)[O-])cc3)cc21`, the T/C is 105 % of control under setting [1], 104 % of control under setting [2] and 105 % of control under setting [3].

Regarding `CC(=O)/C(C(=N)c1nc(C)c(C(C)=O)c(C(N)=O)n1)=C(\C)O`, the T/C was 103 % of control (dose: 50.0 mg/kg/injection, schedule: Q01DX005 (ip), vehicle: Klucel (hydroxypropylcellulose) (HPC)) and 100 % of control (dose: 100.0 mg/kg/injection, schedule: Q01DX005 (ip), vehicle: Klucel (hydroxypropylcellulose) (HPC)).

Consider `O=C1C(C2CCCCC2)=C2OCC3COC2(O3)c2ccccc21` (configuration not stated), for which the T/C is 102 % of control (dose: 60.0 mg/kg/injection, schedule: Q01DX005 (ip), vehicle: saline with Tween-80); 105 % of control (dose: 120.0 mg/kg/injection, schedule: Q01DX005 (ip), vehicle: saline with Tween-80); 102 % of control (dose: 240.0 mg/kg/injection, schedule: Q01DX005 (ip), vehicle: saline with Tween-80).

`COC(=O)C[C@](O)(CCCC(C)(C)O)C(=O)O[C@@H]1C(OC)=C[C@]23CCCN2CCc2cc4c(cc2[C@H]13)OCO4`: the T/C by setting is: (dose: 0.06 mg/kg/injection, schedule: Q01DX005 (iv), vehicle: clinical formulation) 106 % of control; (dose: 0.06 mg/kg/injection, schedule: Q01DX005 (iv), vehicle: saline) 104 % of control; (dose: 0.12 mg/kg/injection, schedule: Q01DX005 (iv), vehicle: clinical formulation) 112 % of control; (dose: 0.12 mg/kg/injection, schedule: Q01DX005 (iv), vehicle: saline) 102 % of control; (dose: 0.12 mg/kg/injection, schedule: Q01DX009 (ip), vehicle: clinical formulation) 155 % of control; (dose: 0.12 mg/kg/injection, schedule: Q01DX009 (ip), vehicle: saline) 152 % of control. In addition, the T/C reads like this: (dose: 0.25 mg/kg/injection, schedule: Q01DX005 (iv), vehicle: clinical formulation) 121 % of control; (dose: 0.25 mg/kg/injection, schedule: Q01DX005 (iv), vehicle: saline) 102 % of control; (dose: 0.25 mg/kg/injection, schedule: Q01DX009 (ip), vehicle: clinical formulation) 166 % of control; (dose: 0.25 mg/kg/injection, schedule: Q01DX009 (ip), vehicle: saline) 162 % of control; (dose: 0.5 mg/kg/injection, schedule: Q01DX005 (iv), vehicle: clinical formulation) 160 % of control; (dose: 0.5 mg/kg/injection, schedule: Q01DX009 (ip), vehicle: clinical formulation) 199 % of control. Moreover, the T/C reads like this: (dose: 0.5 mg/kg/injection, schedule: Q01DX009 (ip), vehicle: saline) 185 % of control; (dose: 0.58 mg/kg/injection, schedule: Q01DX009 (ip), vehicle: acid diluted with saline) 194 % of control; (dose: 0.75 mg/kg/injection, schedule: Q01DX009 (ip), vehicle: acid diluted with saline) 173 % of control and 180 % of control; (dose: 1.0 mg/kg/injection, schedule: Q01DX005 (iv), vehicle: clinical formulation) 194 % of control; (dose: 1.0 mg/kg/injection, schedule: Q01DX005 (iv), vehicle: saline) 168 % of control; (dose: 1.0 mg/kg/injection, schedule: Q01DX009 (ip), vehicle: clinical formulation) 252 % of control. Besides, the T/C was 211 % of control and 229 % of control (dose: 1.65 mg/kg/injection, schedule: Q01DX009 (ip), vehicle: acid diluted with saline); 229 % of control and 234 % of control and 93 % of control (dose: 1.75 mg/kg/injection, schedule: Q01DX009 (ip), vehicle: acid diluted with saline); 159 % of control (dose: 1.8 mg/kg/injection, schedule: Q04DX003 (ip), vehicle: saline + alcohol); 152 % of control (dose: 1.8 mg/kg/injection, schedule: Q04DX003 (ip), vehicle: saline); 203 % of control (dose: 2.0 mg/kg/injection, schedule: Q01DX005 (iv), vehicle: saline); 223 % of control (2×) and 93 % of control (dose: 2.25 mg/kg/injection, schedule: Q01DX009 (ip), vehicle: acid diluted with saline). In addition, the T/C by setting is: (dose: 2.5 mg/kg/injection, schedule: Q01DX009 (ip), vehicle: acid diluted with saline) 106 % of control and 95 % of control; (dose: 3.0 mg/kg/injection, schedule: Q01DX009 (ip), vehicle: acid diluted with saline) 66 % of control; (dose: 3.0 mg/kg/injection, schedule: Q04DX003 (ip), vehicle: saline + alcohol) 99 % of control; (dose: 3.33 mg/kg/injection, schedule: Q04DX003 (ip), vehicle: saline) 103 % of control.

Take `NC(=S)N/N=C/c1cc([N+](=O)[O-])ccc1Cl`: the T/C (dose: 50.0 mg/kg/injection, schedule: Q01DX009 (ip), vehicle: suspension in saline) was 94 % of control; the T/C (dose: 100.0 mg/kg/injection, schedule: Q01DX009 (ip), vehicle: suspension in saline) is 92 % of control; the T/C (dose: 200.0 mg/kg/injection, schedule: Q01DX009 (ip), vehicle: suspension in saline) was 94 % of control.

With `COc1ccc2c(c1O)-c1cc(O)cc3c1[C@@H](C2)N(C)CC3`, the T/C was 104 % of control under setting [4] and 104 % of control under setting [5].

Take `Nc1nc(-c2ccccc2)nc(Cl)c1I`: the T/C (dose: 25.0 mg/kg/injection, schedule: Q01DX009 (ip), vehicle: saline with Tween-80) is 103 % of control; the T/C (dose: 50.0 mg/kg/injection, schedule: Q01DX009 (ip), vehicle: saline with Tween-80) is 105 % of control; the T/C (dose: 100.0 mg/kg/injection, schedule: Q01DX009 (ip), vehicle: saline with Tween-80) is 102 % of control; the T/C (dose: 100.0 mg/kg/injection, schedule: Q04DX003 (ip), vehicle: saline) was 94 % of control; the T/C (dose: 200.0 mg/kg/injection, schedule: Q01DX009 (ip), vehicle: saline with Tween-80) is 105 % of control; the T/C (dose: 200.0 mg/kg/injection, schedule: Q04DX003 (ip), vehicle: saline) is 94 % of control. Moreover, the T/C (dose: 400.0 mg/kg/injection, schedule: Q04DX003 (ip), vehicle: saline) is 101 % of control.

For the compound `NC(=O)C1CCCN1C(=O)C(Cc1ccc(O)cc1)NC(=O)OCc1ccccc1` (stereo not drawn) (Cbz-Tyr-Pro-NH2; configuration not given here), the T/C is, setting by setting: under setting [4], 104 % of control; under setting [5], 97 % of control; (dose: 200.0 mg/kg/injection, schedule: Q01DX005 (ip), vehicle: saline with Tween-80) 94 % of control.
